Source: ChEMBL document CHEMBL3045041, “Synthesis of novel aryl(4-substituted pyridin-3-yl)methyl carbamates and their herbicidal activity” (J Pestic Sci, 2012)

Experiments:
Oryza sativa = assay: Phytotoxicity against Oryza sativa cv. Kinuhikari (rice) planted at 3 cm depth measured after 20 to 25 days; format: organism-based; conditions: in vivo
[1] = test system: Schoenoplectiella juncoides; assay: Herbicidal activity against Schoenoplectiella juncoides under greenhouse condition compound treated at 0.5 leaf stage measured after 14 to 20 days; format: functional
Echinochloa oryzicola [2] = assay: Herbicidal activity against Echinochloa oryzicola under greenhouse condition compound treated at emergence stage measured after 14 to 20 days; format: functional
Echinochloa oryzicola [3] = assay: Herbicidal activity against Echinochloa oryzicola under greenhouse condition compound treated at 2.5 leaf stage measured after 14 to 20 days; format: functional

Structure (SMILES) | ED20 (Oryza sativa) [gAi/ha] | ED80 [1] [gAi/ha] | ED80 (Echinochloa oryzicola [2]) [gAi/ha] | ED80 (Echinochloa oryzicola [3]) [gAi/ha]
CN(C)C(=O)OC(c1cnccc1C(F)(F)F)c1ccnc2ccccc12 (centres undefined) | 2000 | 500 | 125 | 
CN(C)C(=O)OC(c1cnccc1C(F)(F)F)c1ccc2c3c(cccc13)CC2 (centres undefined) | > 2000 | >1000 | 500 | >500
CN(C)C(=O)OC(c1cnccc1C(F)(F)F)c1c(Cl)ccc2c1OCO2 (centres undefined) | > 2000 | 500 | 63 | 500
CN(C)C(=O)OC(c1cnccc1C(F)(F)F)c1cccc2c1OCO2 (centres undefined) | 500 | 250 | 63 | 
